Series [1] in a line: Solubility test at 10 mg/mL (visual inspection and light scattering). The settings on record: for Solubility, Condition 1 Acetate pH 4: 10 mg/mL compound in 100 mM acetate pH 4; for Solubility, Condition 2 Acetate pH 5: 10 mg/mL compound in 100 mM acetate pH 5; for Solubility, Condition 3 Phosphate pH 6: 10 mg/mL compound in 100 mM phosphate pH 6; for Solubility, Condition 4 Phosphate pH 7: 10 mg/mL compound in 100 mM phosphate pH 7; for Solubility, Condition 5 Phosphate pH 7.5: 10 mg/mL compound in 100 mM phosphate pH 7.5. Format: physicochemical.

For series [2], the system named is classical complement pathway. Briefly: In vitro haemolysis assay (inhibition of classical complement pathway). The class given is cell-based, human. The method, boiled down: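 Serially diluted compound (9 points) was preincubated 15 min at room temperature with diluted human serum, titrated per batch to give 70-90% maximal haemolysis, in Tris/casein buffer pH 7.4 with Mg2+/Ca2+. Antibody-sensitized sheep erythrocytes were then added for 30 min at 37° C, and the reaction was stopped with EDTA. Haemolysis was read at A405, with IC50 from 4PL fit.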

Setting [3] is: Table 3, human serum, sensitized sheep red blood cells, read-out: IC50[nM], in vitro analysis of inhibition of hemolysis.

Like-named read-outs stand apart in the source and are kept apart here. Positions of bridges follow the written chain, without caps; N, C: chain ends. Non-standard residues stand in square brackets, D forms with d. Residues, ends and D or L forms follow the SMILES beside them. Trp(1-Me) = Cn1cc(C[C@H](N)C(=O)O)c2ccccc21; Sar = CNCC(=O)O

In the case of `CC[C@H](C)[C@H](NC(=O)[C@H](C)NC(=O)[C@H](CO)NC(=O)CNC(=O)[C@H](CCC(=O)O)NC(C)=O)C(=O)N[C@H]1CSSC[C@@H](C(=O)N(C)CC(=O)N[C@@H](CCC(=O)O)C(N)=O)NC(=O)[C@H](CCCNC(=N)N)NC(=O)[C@H](Cc2c[nH]cn2)NC(=O)[C@H](CCC(=O)O)NC(=O)CNC(=O)[C@H](Cc2c[nH]c3ccccc23)NC(=O)[C@H](CC(=O)O)NC(=O)[C@H](CCC(N)=O)NC(=O)[C@H](Cc2c[nH]c3ccccc23)NC(=O)[C@H]([C@@H](C)CC)NC1=O` [Compound 28] (Ac-EGSAICIWQDWGEHRC[Sar]E-NH2; disulfide 6-16), in series [1], the “Solubility, Condition 1 Acetate pH 4” value was “+ (denotes solubility at the given condition, as determined by UV absorbance being less than 0.1 AU at 340 nm and the sample being clear when manually inspected.)”; the “Solubility, Condition 2 Acetate pH 5” value is “+ (denotes solubility at the given condition, as determined by UV absorbance being less than 0.1 AU at 340 nm and the sample being clear when manually inspected.)”; the “Solubility, Condition 3 Phosphate pH 6” value was “+ (denotes solubility at the given condition, as determined by UV absorbance being less than 0.1 AU at 340 nm and the sample being clear when manually inspected.)”; the “Solubility, Condition 4 Phosphate pH 7” value is “+ (denotes solubility at the given condition, as determined by UV absorbance being less than 0.1 AU at 340 nm and the sample being clear when manually inspected.)”. For the same molecule, the “Solubility, Condition 5 Phosphate pH 7.5” value in series [1] is “+ (denotes solubility at the given condition, as determined by UV absorbance being less than 0.1 AU at 340 nm and the sample being clear when manually inspected.)”. In addition, the IC50 in series [2] (setting [3]) is under 100 nM. The half-inhibitory concentration (IC50) in series [2] (Table 4, valine 3 versus isoleucine 3 pairs, read-out: CP hemolysis IC50) was 88 nM.
As to `CC[C@H](C)[C@H](NC(=O)[C@H](C)NC(=O)[C@H](CO)NC(=O)[C@H](CO)NC(=O)[C@H](CCC(=O)O)NC(C)=O)C(=O)N[C@H]1CSSC[C@@H](C(=O)N[C@H](C(=O)NCC(=O)N[C@@H](C)C(=O)N[C@@H](CCC(=O)O)C(=O)N[C@@H](CO)C(N)=O)[C@@H](C)O)NC(=O)[C@H](CCCNC(=N)N)NC(=O)[C@H](Cc2c[nH]cn2)NC(=O)[C@H](CCC(=O)O)NC(=O)CNC(=O)[C@H](Cc2c[nH]c3ccccc23)NC(=O)[C@H](CC(=O)O)NC(=O)[C@H](CCC(N)=O)NC(=O)[C@H](Cc2c[nH]c3ccccc23)NC(=O)[C@H]([C@@H](C)CC)NC1=O` [Compound 14] (Ac-ESSAICIWQDWGEHRCTGAES-NH2; disulfide 6-16), in series [1], the “Solubility, Condition 1 Acetate pH 4” value was “+ (denotes solubility at the given condition, as determined by UV absorbance being less than 0.1 AU at 340 nm and the sample being clear when manually inspected.)”; the “Solubility, Condition 2 Acetate pH 5” value was “− (denotes lack of solubility at the given condition, as UV absorbance at 340 nm exceeds 0.1 AU and/or it is visibly turbid or contains particles.)”; the “Solubility, Condition 3 Phosphate pH 6” value is given as “− (denotes lack of solubility at the given condition, as UV absorbance at 340 nm exceeds 0.1 AU and/or it is visibly turbid or contains particles.)”; the “Solubility, Condition 4 Phosphate pH 7” value is “+ (denotes solubility at the given condition, as determined by UV absorbance being less than 0.1 AU at 340 nm and the sample being clear when manually inspected.)”. The “Solubility, Condition 5 Phosphate pH 7.5” value in series [1] is “+ (denotes solubility at the given condition, as determined by UV absorbance being less than 0.1 AU at 340 nm and the sample being clear when manually inspected.)”. The IC50 in series [2] (setting [3]) was under 100 nM.
In the case of `CC[C@H](C)[C@@H]1NC(=O)[C@@H](NC(=O)[C@H](Cc2ccc(O)cc2)NC(C)=O)CSSC[C@@H](C(=O)N[C@H](C(=O)N[C@@H](CCC(=O)O)C(=O)N[C@@H](C)C(=O)NCC(=O)N[C@@H](CO)C(N)=O)[C@@H](C)O)NC(=O)[C@H](CCCNC(=N)N)NC(=O)[C@H](Cc2c[nH]cn2)NC(=O)[C@H](CCC(=O)O)NC(=O)CNC(=O)[C@H](Cc2c[nH]c3ccccc23)NC(=O)[C@H](CC(=O)O)NC(=O)[C@H](CCC(N)=O)NC(=O)[C@H](Cc2cn(C)c3ccccc23)NC1=O` [Compound 68] (Ac-YCI[Trp(1-Me)]QDWGEHRCTEAGS-NH2; disulfide 2-12), in series [1], the “Solubility, Condition 1 Acetate pH 4” value is on record as “− (denotes lack of solubility at the given condition, as UV absorbance at 340 nm exceeds 0.1 AU and/or it is visibly turbid or contains particles.)”; the “Solubility, Condition 2 Acetate pH 5” value is on record as “− (denotes lack of solubility at the given condition, as UV absorbance at 340 nm exceeds 0.1 AU and/or it is visibly turbid or contains particles.)”; the “Solubility, Condition 3 Phosphate pH 6” value is “+ (denotes solubility at the given condition, as determined by UV absorbance being less than 0.1 AU at 340 nm and the sample being clear when manually inspected.)”; the “Solubility, Condition 4 Phosphate pH 7” value is “+ (denotes solubility at the given condition, as determined by UV absorbance being less than 0.1 AU at 340 nm and the sample being clear when manually inspected.)”. For the same molecule, the “Solubility, Condition 5 Phosphate pH 7.5” value in series [1] was “+ (denotes solubility at the given condition, as determined by UV absorbance being less than 0.1 AU at 340 nm and the sample being clear when manually inspected.)”. Besides, in series [2] (setting [3]), the IC50 is under 100 nM.
As for `CC[C@H](C)[C@H](NC(C)=O)C(=O)N[C@H]1CSSC[C@@H](C(=O)N[C@H](C(=O)NCC(=O)N[C@@H](C)C(=O)N[C@@H](CCC(=O)O)C(=O)N[C@@H](CO)C(N)=O)[C@@H](C)O)NC(=O)[C@H](CCCNC(=N)N)NC(=O)[C@H](Cc2c[nH]cn2)NC(=O)[C@H](CCC(=O)O)NC(=O)CNC(=O)[C@H](Cc2c[nH]c3ccccc23)NC(=O)[C@H](CC(=O)O)NC(=O)[C@H](CCC(N)=O)NC(=O)[C@H](Cc2cn(C)c3ccccc23)NC(=O)[C@H]([C@@H](C)CC)NC1=O` [Compound 51] (Ac-ICI[Trp(1-Me)]QDWGEHRCTGAES-NH2; disulfide 2-12), in series [1], the “Solubility, Condition 1 Acetate pH 4” value was “− (denotes lack of solubility at the given condition, as UV absorbance at 340 nm exceeds 0.1 AU and/or it is visibly turbid or contains particles.)”; the “Solubility, Condition 2 Acetate pH 5” value is reported as “− (denotes lack of solubility at the given condition, as UV absorbance at 340 nm exceeds 0.1 AU and/or it is visibly turbid or contains particles.)”; the “Solubility, Condition 3 Phosphate pH 6” value was “+ (denotes solubility at the given condition, as determined by UV absorbance being less than 0.1 AU at 340 nm and the sample being clear when manually inspected.)”; the “Solubility, Condition 4 Phosphate pH 7” value is “+ (denotes solubility at the given condition, as determined by UV absorbance being less than 0.1 AU at 340 nm and the sample being clear when manually inspected.)”. In series [1], the “Solubility, Condition 5 Phosphate pH 7.5” value is “+ (denotes solubility at the given condition, as determined by UV absorbance being less than 0.1 AU at 340 nm and the sample being clear when manually inspected.)”. For the same molecule, the IC50 in series [2] (setting [3]) is under 100 nM.

A word on the IC50: it is the concentration that inhibits the measured activity by half.

Values taken from patent US20220306695A1, “COMPSTATIN ANALOGUES AND THEIR MEDICAL USES” (priority 2019, published 2022).
